According to patent US20070049564A1 (Wyeth, priority 2005, published 2007):
≈ marks a conversion by molar mass, not a printed value.

How the values were obtained:
Salmonella spp. GC 566 = assay: MIC, broth microdilution; conditions: Salmonella, SPP.GC566, Salmonella spp. GC 566
Staph. aureus Smith = assay: In vitro activity (MIC) against Staph. aureus Smith; assay type: cell-based; conditions: Staphylococcus aureus; Table 8
Salmonella spp. GC 235 = assay: MIC, broth microdilution; conditions: Salmonella, SPP.GC235, Salmonella spp. GC 235
Protocol: Antimicrobial susceptibility testing. The in vitro activities of the antibiotics are determined by the broth microdilution method as recommended by the National Committee for Clinical Laboratory Standards (NCCLS) (1). Mueller-Hinton II broth (MHBII)(BBL Cockeysville, Md.) is the medium employed in the testing procedures. Microtiter plates containing serial dilutions of each antimicrobial agent are inoculated with each organism to yield the appropriate density (10^5 CFU/ml) in a 100 μl final volume. The plates are incubated for 18-22 hours at 35° C. in ambient air.
Representative compounds were first incubated in mouse serum for an hour prior to the in vitro testing against a panel of selected gram-positive and gram-negative bacteria strains. All compounds were also pre-incubated in water for an hour prior to testing as control.

[1] = Pharmacokinetics in monkey, IV 2 mg/kg and oral 10 mg/kg; assay type: in vivo; conditions: Oral - MONKEY 10 mg/kg
S. cholerasius GC 1355 = assay: MIC, broth microdilution; conditions: S. cholerasius GC 1355

CCCCN(CC(=O)Nc1cc(N(C)C)c2c(c1O)C(=O)C1=C(O)[C@]3(O)C(=O)C(C(N)=O)=C(O)[C@@H](N(C)C)C3CC1C2)C(=O)OCOC(=O)C(C)C (stereo partly drawn) [Example 1, ({[(2-{[(7S,10aS)-9-(aminocarbonyl)-4,7-bis(dimethylamino)-1,8,10a,11-tetrahydroxy-10,12-dioxo-5,5a,6,6a,7,10,10a,12-octahydrotetracen-2-yl]amino}-2-oxoethyl)(butyl)amino]carbonyl}oxy)methyl 2-methylpropanoate]
MIC (Salmonella spp. GC 566; Mouse Serum pre-incubation): 2 µg/mL (≈ 2.74 µM) | MIC (Salmonella spp. GC 566; Water pre-incubation): 64 µg/mL (≈ 87.7 µM) | MIC (Staph. aureus Smith): 4 µg/mL (≈ 5.48 µM) | MIC (Salmonella spp. GC 235; Mouse Serum pre-incubation): 1 µg/mL (≈ 1.37 µM) | MIC (Salmonella spp. GC 235; Water pre-incubation): 64 µg/mL (≈ 87.7 µM) | Cmax [1]: no levels detected | MIC (S. cholerasius GC 1355; Mouse Serum pre-incubation): 8 µg/mL (≈ 11 µM) | MIC (S. cholerasius GC 1355; Water pre-incubation): > 64 µg/mL
